Assay results reported in PubChem BioAssay AID1963868 (Molecular Pharmacology Branch, DTP, NCI, 2024).

Test system: KRAS PDC tumor spheroids (HUVEC+MSC), viability
Test: Anticancer human tumor 254851-301-R-J1-PDC patient-derived colon carcinoma cell line growth inhibition [KRAS2]
Details: for IC50: curve of first compound; for viability, T/C: stronger effect = lower value
Source text: Multicellular complex tumor spheroid response to RAS pathway inhibitors in combination with a targeted agents in patient-derived cell lines with oncogenic KRAS variants from multiple cancer types
A high-throughput screen of multi-cell type tumor spheroids was designed to identify active combinations of targeted small molecules and KRAS pathway inhibitors. Complex spheroids include a stromal component modeled by human endothelial cells (HUVEC) and fibroblasts modeled by human mesenchymal stem cells (MSCs). The concentration ranges selected for each drug and investigational agent were based upon clinically achievable concentrations if the clinical Cmax of the agent was known.
Compounds. The drugs and investigational agents: BI-3406 (NSC825286), BAY-293 (NSC824723), batoprotafib (TNO155; NSC825523), sotorasib (AMG 510; NSC818433), MRTX1257 (NSC819558), elimusertib (BAY 1895344; NSC800525), molibresib (GSK525762; NSC774829), temuterkib (LY3214996; NSC803410), venetoclax (NSC766270), alisertib (NSC759677), olaparib (NSC753686), talazoparib (NSC767125), erdafitinib (NSC781556), ipatasertib (NSC767898), cabozantinib (NSC761068), nintedanib (NSC756659), abemaciclib (NSC768073), docetaxel (NSC628503), trametinib (NSC758246), and sapanisertib (NSC764658) were obtained from the National Cancer Institute (NCI) Developmental Therapeutics Program Chemical Repository. The FDA-approved anticancer drug set is available from the Developmental Therapeutics Program. […] The stock solutions were prepared in dimethyl sulfoxide (DMSO, Sigma-Aldrich, St. Louis, MO, cat. D2650) at 800-fold the tested concentration and stored at -70 degrees C prior to their use. All drugs and investigational agents were tested over a range starting from a high concentration at or near the clinical Cmax and decreasing in half-log increments. If the clinical Cmax for an agent had not been determined, the highest concentration tested was 10 microM.
Cell Culture. All cells were maintained in an incubator at 37 degrees C and 5% CO2 with 95% humidity. The PDC lines were cultured according to standard operating procedures established by the NCI PDMR (https://pdmr.cancer.gov/sops/default.htm). Briefly, all PDCs were thawed and cultured in Matrigel-coated flasks prepared with a working solution of 1X Ham's F-12 nutrient mix, without supplementation (Invitrogen, Waltham, MA, cat. 11765054), 100 U/mL penicillin-streptomycin (Invitrogen, cat. 15140122), and 2.5% Matrigel (Corning Inc., Corning, NY, cat. 354248) for the first three passages. All PDCs were cultured in complete DMEM/F-12 media containing advanced DMEM/F-12 (Invitrogen, cat. 12634028), 4.9% defined fetal bovine serum, heat inactivated (HyClone Laboratories Inc., Logan, UT, cat. SH30070.03HI), 389 ng/mL hydrocortisone (Sigma-Aldrich, cat. H4001), 9.7 ng/mL human EGF recombinant protein (Invitrogen, cat. PHG0313), 23.4 microg/mL adenine (Sigma-Aldrich, cat. A2786), 97.3 U/mL penicillin-streptomycin (Invitrogen, cat. 15140122), 1.9 mM L-glutamine (Invitrogen, cat. 25030081), and 9.7 microM Y-27632 dihydrochloride (Tocris Bioscience, Bristol, United Kingdom, cat. 1254). The PDCs were cultured in complete DMEM/F12 media without 9.7 microM Y-27632 dihydrochloride for at least two passages prior to the screen. The established cell line HOP-62 was cultured in RPMI 1640 medium, HEPES (Invitrogen, cat. 22400105) with 10% defined fetal bovine serum (HyClone Laboratories Inc., cat. SH30070.03) and 2 mM L-glutamine (Invitrogen, cat. 25030081). The pooled donor HUVEC were cultured in endothelial cell growth medium 2 (PromoCell, Heidelberg, Germany, cat. C-22011) and the hMSC were cultured in mesenchymal stem cell growth medium 2 (PromoCell, cat. C-28009). For all experiments, HUVEC and hMSC were used at passages </=5, while the malignant cell lines were used at passages </=15. […]

[1] = second compound 0.1 µM, first compound 0.0316 µM
[2] = second compound 0.1 µM, first compound 0.1 µM
[3] = second compound 0.1 µM, first compound 0.316 µM
[4] = second compound 0.1 µM, first compound 1 µM
[5] = second compound 0.1 µM, first compound 3.16 µM
[6] = second compound 0.1 µM, first compound 10 µM
[7] = second compound 0.316 µM, first compound 0.0316 µM
[8] = second compound 0.316 µM, first compound 0.1 µM
[9] = second compound 0.316 µM, first compound 0.316 µM
[10] = second compound 0.316 µM, first compound 1 µM
[11] = second compound 0.316 µM, first compound 3.16 µM
[12] = second compound 0.316 µM, first compound 10 µM
[13] = second compound 1 µM, first compound 0.0316 µM
[14] = second compound 1 µM, first compound 0.1 µM
[15] = second compound 1 µM, first compound 0.316 µM
[16] = second compound 1 µM, first compound 1 µM
[17] = second compound 1 µM, first compound 3.16 µM
[18] = second compound 1 µM, first compound 10 µM
[19] = second compound 3.16 µM, first compound 0.0316 µM
[20] = second compound 3.16 µM, first compound 0.1 µM
[21] = second compound 3.16 µM, first compound 0.316 µM
[22] = second compound 3.16 µM, first compound 1 µM
[23] = second compound 3.16 µM, first compound 3.16 µM
[24] = second compound 3.16 µM, first compound 10 µM
[25] = second compound 10 µM, first compound 0.0316 µM
[26] = second compound 10 µM, first compound 0.1 µM
[27] = second compound 10 µM, first compound 0.316 µM
[28] = second compound 10 µM, first compound 1 µM
[29] = second compound 10 µM, first compound 3.16 µM
[30] = second compound 10 µM, first compound 10 µM
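Further: spheroids exposed to compounds for seven days before readout.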
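Wherever viability, T/C is given: 100% = DMSO vehicle control luminescence of the spheroids.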

Structure (SMILES)	IC50 (second compound 0.1 µM) [µM]	IC50 (second compound 0.316 µM) [µM]	IC50 (second compound 1 µM) [µM]	IC50 (second compound 3.16 µM) [µM]	IC50 (second compound 10 µM) [µM]	viability, T/C [1] [%]	viability, T/C [2] [%]	viability, T/C [3] [%]	viability, T/C [4] [%]	viability, T/C [5] [%]	viability, T/C [6] [%]	viability, T/C [7] [%]	viability, T/C [8] [%]	viability, T/C [9] [%]	viability, T/C [10] [%]	viability, T/C [11] [%]	viability, T/C [12] [%]	viability, T/C [13] [%]	viability, T/C [14] [%]	viability, T/C [15] [%]	further results
COC(=O)c1ccc2c(C(=Nc3ccc(N(C)C(=O)CN4CCN(C)CC4)cc3)c3ccccc3)c(O)[nH]c2c1 + C=CC(=O)N1CCN(c2nc(=O)n(-c3c(C)ccnc3C(C)C)c3nc(-c4c(O)cccc4F)c(F)cc23)C(C)C1	> 10	> 10	> 10	> 10	> 10	91.1	89.7	92.3	91.8	83.5	85	89	99.9	94	89.9	84.5	85.5	90.6	91.2	84.9	viability, T/C [16]: 76.3%; viability, T/C [17]: 77.3%; viability, T/C [18]: 83.4%; viability, T/C [19]: 93%; viability, T/C [20]: 101%; viability, T/C [21]: 88.3%; viability, T/C [22]: 88.7%; viability, T/C [23]: 75%; viability, T/C [24]: 85.7%; viability, T/C [25]: 95.6%; viability, T/C [26]: 104%; viability, T/C [27]: 93.5%; viability, T/C [28]: 87.4%; viability, T/C [29]: 77.5%; viability, T/C [30]: 75.4%
O=C(c1cc(Cc2n[nH]c(=O)c3ccccc23)ccc1F)N1CCN(C(=O)C2CC2)CC1 + C=CC(=O)N1CCN(c2nc(=O)n(-c3c(C)ccnc3C(C)C)c3nc(-c4c(O)cccc4F)c(F)cc23)C(C)C1	> 10	> 10	> 10	> 10	> 10	104	100	101	103	95.6	89.5	116	104	96	97	101	97.2	111	101	111	viability, T/C [16]: 104%; viability, T/C [17]: 106%; viability, T/C [18]: 92%; viability, T/C [19]: 106%; viability, T/C [20]: 102%; viability, T/C [21]: 105%; viability, T/C [22]: 100%; viability, T/C [23]: 102%; viability, T/C [24]: 95.7%; viability, T/C [25]: 107%; viability, T/C [26]: 114%; viability, T/C [27]: 105%; viability, T/C [28]: 110%; viability, T/C [29]: 101%; viability, T/C [30]: 107%
